Measurements from PMC11729419, “Thiol-Reactive or Redox-Active: Revising a Repurposing Screen Led to a New Invalidation Pipeline and Identified a True Noncovalent Inhibitor Against Papain-like Protease from SARS-CoV-2” (ACS Pharmacology & Translational Science, 2024).
Counter-ions that a name gives are not always drawn. Like-named read-outs stand apart in the source and are kept apart here.

Biological target: SARS-CoV-2 PLpro-NAB (Severe acute respiratory syndrome coronavirus 2, UniProt P0DTD1)
Test: biochemical
Details: for Inhibitory activity on retest in 1 mM L-cysteine: 50% inhibition at 20 μM
[1] = Table S1, 20 µM, DTT buffer, average (SD)
[2] = Table S1, 20 µM, L-cysteine buffer, average (SD)
[3] = Table S1, DTT buffer, read-out: HP PLpro-NAB SARS-CoV-2 IC50 [µM] triplicates DTT BUFFER
[4] = Table S1, L-cysteine buffer, read-out: HP PLpro-NAB SARS-CoV-2 IC50 [µM] duplicates L-CYS BUFFER
[5] = Table S1, 20 µM, L-cysteine buffer, average (SD), read-out: HP PLpro-NAB SARS-CoV-2 inhibition [%] 20 µM triplicates L-CYS BUFFER
[6] = Table S1, 20 µM, DTT buffer, average (SD), read-out: HC PLpro-NAB SARS-CoV-2 inhibition [%] 20 µM triplicates DTT BUFFER
[7] = hit confirmation, 20 μM, 1 mM DTT buffer, average (SD), 20 μM PR619 = 100%, DMSO = 0%
[8] = hit profiling, 20 μM, 1 mM L-cys buffer, average (SD), 20 μM PR619 = 100%
[9] = read-out: HP PLpro-NAB IC50 [μM] duplicates 1 mM L-cys buffer, hit profiling, 1 mM L-cys buffer
[10] = read-out: HP PLpro-NAB IC50 [μM] triplicates 1 mM DTT buffer, hit profiling, 1 mM DTT buffer

Compound: NC(Cc1cc(O)c(O)cc1O)C(=O)O (racemic) [6-Hydroxy-DL-DOPA]
- HC PLpro-NAB SARS-CoV-2 inhibition [%] 20 µM triplicates DTT BUFFER [1]: 81.47 (1.21) %
- HP PLpro-NAB SARS-CoV-2 inhibition [%] 20 µM triplicates L-CYS BUFFER [2]: 4.81 (4.61) %
- IC50 [3]: > 20 µM
- IC50 [4]: > 20 µM

Compound: Cc1nc2c(=O)n(C)c(=O)nc-2n(C)n1 [3-Methyl Toxoflavin]
- HC PLpro-NAB SARS-CoV-2 inhibition [%] 20 µM triplicates DTT BUFFER [1]: 181.38 (6.76) %
- HP PLpro-NAB SARS-CoV-2 inhibition [%] 20 µM triplicates L-CYS BUFFER [2]: -26.71 (3.86) %
- IC50 [3]: 0.074 µM
- IC50 [4]: > 20 µM

Compound: O=C1C(=O)c2ccccc2-c2ccccc21 [9,10-Phenanthrenequinone]
- inhibition at 20 µM [5]: -40.8%
- IC50 [4]: > 20 µM

Compound: C[n+]1c2cc(N)ccc2cc2ccc(N)cc21.[Cl-] [Acriflavinium Hydrochloride]
- HC PLpro-NAB SARS-CoV-2 inhibition [%] 20 µM triplicates DTT BUFFER [1]: 27.57 (6.10) %
- HP PLpro-NAB SARS-CoV-2 inhibition [%] 20 µM triplicates L-CYS BUFFER [2]: -99.55 (4.20) %
- IC50 [3]: 12.4 µM
- IC50 [4]: > 20 µM

Compound: CC1(C)CCC2=C(O1)C(=O)c1ccccc1C2=O [Alpha Lapachone]
- HC PLpro-NAB SARS-CoV-2 inhibition [%] 20 µM triplicates DTT BUFFER [1]: 146.26 (3.11) %
- HP PLpro-NAB SARS-CoV-2 inhibition [%] 20 µM triplicates L-CYS BUFFER [2]: -6.97 (8.44) %
- IC50 [3]: 4.43 µM
- IC50 [4]: > 20 µM

Compound: CC1(C)C(=O)N=C2C1=C(O)C(=O)c1ccccc12 [BVT-948]
- HC PLpro-NAB SARS-CoV-2 inhibition [%] 20 µM triplicates DTT BUFFER [1]: 154.88 (0.27) %
- HP PLpro-NAB SARS-CoV-2 inhibition [%] 20 µM triplicates L-CYS BUFFER [2]: -16.22 (16.3) %
- IC50 [3]: 0.39 µM
- IC50 [4]: > 20 µM

Compound: Cn1cccc1/C=C1\C(=O)NC(=O)c2ccccc21 [BYK-204165]
- HC PLpro-NAB SARS-CoV-2 inhibition [%] 20 µM triplicates DTT BUFFER [1]: 137.58 (2.88) %
- HP PLpro-NAB SARS-CoV-2 inhibition [%] 20 µM triplicates L-CYS BUFFER [2]: 7.10 (11.9) %
- IC50 [3]: 6.17 µM
- IC50 [4]: > 20 µM

Compound: CC1(C)CCC2=C(O1)c1ccccc1C(=O)C2=O [Beta-Lapachone]
- inhibition at 20 µM [6]: 175%
- inhibition at 20 µM [5]: -37.4%
- IC50 [3]: 4.71 µM
- IC50 [4]: > 20 µM

Compound: C[C@H]1COC2=C1C(=O)C(=O)c1c2ccc2c1CCCC2(C)C [Cryptotanshinone]
- inhibition at 20 µM [6]: 40.7%
- inhibition at 20 µM [5]: -71.4%

Compound: CC(C)Nc1cccnc1N1CCN(C(=O)c2cc3cc(NS(C)(=O)=O)ccc3[nH]2)CC1 [Delavirdine (mesylate), Delavirdine]
- IC50 (HP PLpro-NAB SARS-CoV-2 IC50 [µM] duplicates L-CYS BUFFER): > 20 µM
- IC50 (HP PLpro-NAB SARS-CoV-2 IC50 [µM] triplicates DTT BUFFER): > 20 µM

Compound: Cc1cccc2c3c(ccc12)C1=C(C(=O)C3=O)[C@@H](C)CO1 [Dihydrotanshinone I]
- inhibition at 20 µM [6]: 80.7%
- inhibition at 20 µM [5]: -176%
- IC50 [3]: 0.92 µM
- IC50 [4]: > 20 µM

Compound: COc1cc([C@@H]2c3cc4c(cc3[C@@H](O[C@@H]3O[C@@H]5CO[C@@H](C)O[C@H]5[C@H](O)[C@H]3O)[C@H]3COC(=O)[C@H]23)OCO4)cc(OC)c1O [Etoposide]
- IC50 [3]: > 20 µM
- IC50 [4]: > 20 µM

Compound: Cc1cc(-c2ccc(/N=N/c3ccc4c(S(=O)(=O)O)cc(S(=O)(=O)O)c(N)c4c3O)c(C)c2)ccc1/N=N/c1ccc2c(S(=O)(=O)O)cc(S(=O)(=O)O)c(N)c2c1O [Evans Blue]
- inhibition at 20 µM [6]: 126%
- inhibition at 20 µM [5]: -67.8%
- IC50 [3]: 8.68 µM
- IC50 [4]: > 20 µM

Compound: Oc1c(Cl)cc(Cl)c(Cl)c1Cc1c(O)c(Cl)cc(Cl)c1Cl [Hexachlorophene]
- IC50 (HP PLpro-NAB SARS-CoV-2 IC50 [µM] duplicates L-CYS BUFFER, Table S1, L-cysteine buffer): > 20 µM
- IC50 (HP PLpro-NAB SARS-CoV-2 IC50 [µM] triplicates DTT BUFFER, Table S1, DTT buffer): > 20 µM
- inhibition at 20 µM (read-out: HC PLpro-NAB SARS-CoV-2 inhibition [%] 20 µM triplicates DTT BUFFER): 109%
- inhibition at 20 µM (read-out: HP PLpro-NAB SARS-CoV-2 inhibition [%] 20 µM triplicates L-CYS BUFFER): -18.3%

Compound: CC[n+]1c(-c2ccccc2)c2cc(N)ccc2c2ccc(N)cc21 [Homidium Bromide]
- inhibition at 20 µM [6]: 149%
- inhibition at 20 µM [5]: 18.3%
- IC50 [3]: 13.7 µM
- IC50 [4]: > 20 µM

Compound: O=C1C=CC(=O)c2c(O)cccc21 [Juglone]
- inhibition at 20 µM [6]: 83.7%
- inhibition at 20 µM [5]: -14.8%
- IC50 [3]: > 20 µM
- IC50 [4]: > 20 µM

Compound: CCOC(=O)C1=C(C)N=c2sc(=Cc3ccc(OCC(=O)O)cc3)c(=O)n2C1c1ccc(SC)cc1 (stereo not drawn) [ML120]
- HC PLpro-NAB SARS-CoV-2 inhibition [%] 20 µM triplicates DTT BUFFER [1]: 82.78 (2.58) %
- HP PLpro-NAB SARS-CoV-2 inhibition [%] 20 µM triplicates L-CYS BUFFER [2]: -56.07 (10.54) %
- IC50 [3]: 3.14 µM
- IC50 [4]: > 20 µM

Compound: COc1cccc2c(NCc3ccccc3)nc(-n3c(N)nc4ccccc43)nc12 [ML240]
- HC PLpro-NAB SARS-CoV-2 inhibition [%] 20 µM triplicates DTT BUFFER [1]: 93.76 (13.43) %
- HP PLpro-NAB SARS-CoV-2 inhibition [%] 20 µM triplicates L-CYS BUFFER [2]: -11.93 (4.14) %
- IC50 [3]: > 20 µM
- IC50 [4]: > 20 µM

Compound: Nc1ccc(O)c2ncccc12 [PD119507]
- HC PLpro-NAB SARS-CoV-2 inhibition [%] 20 µM triplicates DTT BUFFER [1]: 186.40 (4.35) %
- HP PLpro-NAB SARS-CoV-2 inhibition [%] 20 µM triplicates L-CYS BUFFER [2]: -16.42 (5.8) %
- IC50 [3]: 0.065 µM
- IC50 [4]: > 20 µM

Compound: N#CSc1cc(SC#N)c(N)nc1N [PR-619]
- Inhibition in L-cysteine buffer versus DTT buffer (dose-response) (1 mM L-cysteine vs 1 mM DTT): did not show variations in inhibition potency or thermal stability
- Inhibitory activity on retest in 1 mM L-cysteine: retained their inhibitory activity
- HC PLpro-NAB inhibition [%] 20 μM triplicates 1 mM DTT buffer [7]: 101.31 (1.54) %
- HP PLpro-NAB inhibition [%] 20 μM triplicates 1 mM L-cys buffer [8]: 106.60 (1.05) %
- IC50 [9]: 3.7 µM
- IC50 [10]: 1.39 µM

Compound: Cc1cc(-c2ccc(/C=C3/SC(=Nc4ccc(Cl)c(C(=O)O)c4)NC3=O)o2)c([N+](=O)[O-])cc1C [PT 1]
- HC PLpro-NAB SARS-CoV-2 inhibition [%] 20 µM triplicates DTT BUFFER [1]: 87.07 (2.59) %
- HP PLpro-NAB SARS-CoV-2 inhibition [%] 20 µM triplicates L-CYS BUFFER [2]: -36.09 (5.10) %
- IC50 [3]: 9.32 µM
- IC50 [4]: > 20 µM

Compound: CC[N+](C)(CC)CCC[n+]1c(-c2ccccc2)c2cc(N)ccc2c2ccc(N)cc21.[I-].[I-] [Propidium-Iodide]
- HC PLpro-NAB SARS-CoV-2 inhibition [%] 20 µM triplicates DTT BUFFER [1]: 135.55 (3.03) %
- HP PLpro-NAB SARS-CoV-2 inhibition [%] 20 µM triplicates L-CYS BUFFER [2]: 14.90 (7.41) %
- IC50 [3]: 0.24 µM
- IC50 [4]: > 20 µM

Compound: O=c1ccc2[n+]([O-])c3ccc(O)cc3oc-2c1 [Resazurin (sodium salt), Resazurin]
- IC50 [3]: > 20 µM
- IC50 [4]: > 20 µM

Compound: O=C(Nc1ccccc1-c1cn2c(CN3CCNCC3)csc2n1)c1cnc2ccccc2n1 [SRT 1720]
- Inhibitory activity on retest in 1 mM L-cysteine: retained their inhibitory activity
- HC PLpro-NAB inhibition [%] 20 μM triplicates 1 mM DTT buffer [7]: 109.60 (16.57) %
- HP PLpro-NAB inhibition [%] 20 μM triplicates 1 mM L-cys buffer [8]: 169.11 (0.11) %
- IC50 [9]: 0.82 µM
- IC50 [10]: > 20 µM

Compound: CN(C)CCNc1nc2cc(O)ccc2c2c1C(=O)c1ccccc1-2.Cl.Cl [TAS-103 (dihydrochloride)]
- HC PLpro-NAB SARS-CoV-2 inhibition [%] 20 µM triplicates DTT BUFFER [1]: 154.91 (1.47) %
- HP PLpro-NAB SARS-CoV-2 inhibition [%] 20 µM triplicates L-CYS BUFFER [2]: 17.75 (9.12) %
- IC50 [3]: 5.94 µM
- IC50 [4]: > 20 µM

Compound: COCCn1c2c([n+](Cc3cnccn3)c1C)C(=O)c1ccccc1C2=O [YM-155]
- inhibition at 20 µM [6]: 139%
- inhibition at 20 µM [5]: -5.61%
- IC50 [3]: 17.9 µM
- IC50 [4]: > 20 µM

Compound: O=c1c(O)cccc2cc(O)c(O)c(O)c12 [purpurogallin]
- IC50 (HP PLpro-NAB IC50 [μM] duplicates 1 mM L-cys buffer, hit profiling, 1 mM L-cys buffer): 1.03 µM
- IC50 (HP PLpro-NAB IC50 [μM] triplicates 1 mM DTT buffer, hit profiling, 1 mM DTT buffer): > 20 µM

Compound: O=C(O)c1cc(O)c2c(c1)[C@H]([C@H]1c3cc(C(=O)O)cc(O)c3C(=O)c3c(O[C@@H]4O[C@H](CO)[C@@H](O)[C@H](O)[C@H]4O)cccc31)c1cccc(O[C@@H]3O[C@H](CO)[C@@H](O)[C@H](O)[C@H]3O)c1C2=O [sennoside A]
- inhibition at 20 µM (hit confirmation, 20 μM, 1 mM DTT buffer, average (SD), 20 μM PR619 = 100%, DMSO = 0%, read-out: HC PLpro-NAB inhibition [%] 20 μM triplicates 1 mM DTT buffer): 160%
- inhibition at 20 µM (hit profiling, 20 μM, 1 mM L-cys buffer, average (SD), 20 μM PR619 = 100%, read-out: HP PLpro-NAB inhibition [%] 20 μM triplicates 1 mM L-cys buffer): 149%

Compound: Bacitracin [Bacitracin (Zinc)]
- HC PLpro-NAB SARS-CoV-2 inhibition [%] 20 µM triplicates DTT BUFFER [1]: 67.28 (8.42) %
- HP PLpro-NAB SARS-CoV-2 inhibition [%] 20 µM triplicates L-CYS BUFFER [2]: 6.99 (8.69) %
- IC50 [3]: 10.2 µM
- IC50 [4]: > 20 µM
